Results from patent US20160296529A1, “AMINOTRIAZOLOPYRIDINE FOR USE IN THE TREATMENT OF INFLAMMATION, AND PHARMACEUTICAL COMPOSITIONS THEREOF” (priority 2012, published 2016).
Where “and” joins values, the source holds several entries; their conditions need not be identical. Equal values may be shown once. Read-outs that look alike come from different tables or passages of the source.

Legend:
[1] = biological target: T1, Recombinant human TYK2 catalytic domain (Homo sapiens, UniProt P29597); test: TYK2 inhibition assay; format: biochemical
T1 construct: amino acids 871-1187; catalog number 08-147; GST; purchased Carna Biosciences 08-147
T1 sequence (P29597 871-1187): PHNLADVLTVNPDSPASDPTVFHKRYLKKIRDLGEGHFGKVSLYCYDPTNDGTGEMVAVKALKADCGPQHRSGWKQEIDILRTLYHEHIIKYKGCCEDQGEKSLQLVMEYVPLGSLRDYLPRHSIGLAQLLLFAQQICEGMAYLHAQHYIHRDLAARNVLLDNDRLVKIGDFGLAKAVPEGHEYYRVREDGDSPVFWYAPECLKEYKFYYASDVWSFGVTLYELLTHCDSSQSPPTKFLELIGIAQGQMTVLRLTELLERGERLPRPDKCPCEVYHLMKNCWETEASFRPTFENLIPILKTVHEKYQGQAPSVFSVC
Procedure: Recombinant human TYK2 catalytic domain (amino acids 871-1187; catalog number 08-147) was purchased from Carna biosciences. 4 ng of TYK2 was incubated with 12.5 μg polyGT substrate (Sigma catalog number P0275) in kinase reaction buffer (25 mM Hepes pH 7.2, 50 mM NaCl, 0.5 mM EDTA, 1 mM DTT, 5 mM MnCl2, 10 mM MgCl2, 0.1% Brij-35, 0.1 μM non-radioactive ATP, 0.125 μCi ^33P-gamma-ATP (Perkin Elmer, catalog number NEG602K001MC) final concentrations) with or without 5 μL containing test compound or vehicle (DMSO, 1% final concentration), in a total volume of 25 μL, in a polypropylene 96-well plate (Greiner, V-bottom). After 90 min at 30° C., reactions were stopped by adding 25 μL/well of 150 mM phosphoric acid. […] 40 μL/well of Microscint-20 was added, the top of the plates was sealed and readout was performed using the Topcount (Perkin Elmer). Kinase activity was calculated by subtracting counts per min (cpm) obtained in the presence of a positive control inhibitor (10 μM staurosporine) from cpm obtained in the presence of vehicle. The ability of a test compound to inhibit this activity was determined as:
Percentage inhibition−((cpm determined for sample with test compound present−cpm determined for sample with positive control inhibitor) divided by (cpm determined in the presence of vehicle−cpm determined for sample with positive control inhibitor))*100. […]

[2] = test system: IL-6-induced STAT1 phosphorylation (JAK1-dependent pathway); test: Human whole blood assay (hWBA), IL-6 stimulation, phospho-STAT1 on CD4+ cells; format: cell-based
Procedure: A flow cytometry analysis was performed to establish JAK1 over JAK2 compound selectivity ex vivo using human whole blood. Therefore, blood is taken from human volunteers who gave informed consent. Blood is then equilibrated for 30 min at 37° C. under gentle rocking, then aliquoted in Eppendorf tubes. Compound is added at different concentrations and incubated at 37° C. for 30 min under gentle rocking and subsequently stimulated for 20 min at 37° C. under gentle rocking with interleukin 6 (IL-6) for JAK1-dependent pathway stimulation or GM-CSF for JAK2-dependent pathway stimulation. Phospho-STAT1 and phospho-STAT5 are then evaluated using FACS analysis. […]
Cells were then washed once with 1×PBS and analyzed on a FACSCanto II flow cytometer (BD Biosciences).
50,000 total events are counted and Phospho-STAT1 positive cells are measured after gating on CD4^+ cells, in the lymphocyte gate. Data are analyzed using the FACSDiva software and the percentage of inhibition of IL-6 stimulation calculated from the percentage of positive cells for phospho-STAT1 on CD4+ cells.
A flow cytometry analysis was performed to establish JAK1 over JAK2 compound selectivity ex vivo using human whole blood. […] Phospho-STAT1 (for IL-6- and IFNα-stimulated cells) and phospho-STAT5 (for IL-2- and GM-CSF-stimulated cells) levels are then evaluated using FACS analysis. […]

`Nc1nc2cccc(-c3ccc(CN4CCS(=O)(=O)CC4)cc3)n2n1` [Formula I, 5-[4-(1,1-Dioxothiomorpholin-4-ylmethyl)-phenyl]-[1,2,4]triazolo[1,5-a]pyridin-2-ylamine] was tested, and the IC50 ([1]; average, read-out: IC50 (average)) was > 3 µM, the IC50 ([1]; individual determinations, read-out: IC50) was > 3.33 µM (3×) and 1.97 µM and 2.12 µM and 3.85 µM and 3.82 µM and 2.21 µM and the IC50 ([2]; human whole blood, 6 different donors) was 11.9 µM. The “selectivity for JAK1 over JAK2” value ([2]; in vitro whole blood selectivity assay (IL-6 vs GM-CSF)) was “over 10 fold”.
